Results published in US10939692B2, “Method for culturing aquatic animals with aspartyl-dipeptides” (Cysal GmbH, priority 2015, dated 2021).

How the values were obtained:
Type in all cases: in vivo
[1] = test system: Atlantic salmon (Salmo salar L.); assay: Salmon nutrition experiment (bioavailability, arginine retention, growth, safety)
Excerpt: The objective of the experiment was to examine the in vivo bioavailability of the above described “β-L-aspartyl-R” dipeptides in fish for the first time and consequently to determine their applicability as a substitute of free amino acids sources in Atlantic salmon (Salmo salar L.) nutrition. Therefore, varying supplementation levels of β-L-aspartyl-L-arginine in contrast to a mixture of free amino acids L-arginine and L-aspartic acid were compared.
315 Atlantic salmon (96.33 g±11.47 g; Danish Salmon AS, Hirtshals, DK) were acclimatized for 14 d in the experimental rearing system. The tanks of the system were part of a recirculation system (3.5 m^3 water volume, turnover rate 2 h^−1). The water purification system consisted of a mechanical filter, a moving bed filter, and a protein skimmer. Water quality parameters were maintained within a safe range for the fish (7.2-7.6 pH; GMH 3530, Digital pH-/mV-/Thermometer, Greisinger electronic, D; 22.5±0.3° C., 8.5±0.4 mg/l O2; Handy Polaris; Oxy-Guard International A/S, Birkerod, Denmark; <0.4 mg/l NH4—N; <0.24 mg/l NO2—N; Microquant test kit for NH4 and NO2; Merck KgaA, Darmstadt, Germany). The light conditions were set to 14 h/10 h light/dark cycle. During acclimatization fish were fed a commercial salmon feed (Aller Gold 4 mm; AllerAqua A/S, Christiansfeld, Denmark). The fish were reared in 150 l aquaria. Triplicate fish groups (3×15) were fed to apparent satiation twice a day over a period of 10 weeks.
In order to fulfill the nutritional demands of Atlantic salmon (except for arginine content), the different concentrations of the test substances were added to a basal diet which was produced with the following common ingredients used for fish nutrition: Fish meal (Clupea sp.) 9.91%, Blood meal 1.93%, Casein 3.05%, Corn gluten 20.80%, Wheat gluten 22.09%, Biolysine™ 1.48%, Wheat starch 25.43%, Fish oil 11.13%, Ca2PO4 0.46%, Vit/min premix 0.93%, TiO2 0.93%, and Carboxymethyl cellulose ad 100% (after adding the test supplements). The experiment was carried out with the resulting 7 dietary treatments:
Samples of all experimental groups were analyzed for arginine retention in the lab of LUFA in Kiel. […] Crude protein content (N×6.25) was determined by the Kjeldahl method, crude lipid content after hydrolysis with hydrochloric acid followed by a petroleum ether extraction using a Soxhlet extraction system, DM after drying at 103° C. until constant weight, and ash content after 4 h incineration at 550° C. in a combustion oven (P300; Nabertherm, Lilienthal, Germany). Furthermore, gross energy was measured in a bomb calorimeter (C 200; IKA, Staufen, Germany).
The statistical analyses were performed using SPSS 21.0 for Windows (SPSS Inc., Chicago, U.S.). […] Data were analyzed for variance homogeneity by Levene (p<0.05). […]

[2] = test system: Oreochromis niloticus; assay: Aquaculture screening experiment, Tilapia growth on arginine-limited basal diet; settings: after two months
Excerpt: (§1) Nearly all of the […] species relevant to aquaculture belong to three supra-orders: Ostariophysi ([…], catfish, and allies), Protacanthopterygii (e.g. pike, trouts and salmon), and Acanthopterygii (around 50% of all fish species, including all […], flatfish, tuna, etc.). In order to cover as much of the phylogenetic range as possible, fish species were chosen from each of these supra-orders (Ostariophysi; Clarias gariepinus, Protacanthopterygii; Oncorhychus mykiss, Acanthopterygii; Oreochromis niloticus). Additionally, kuruma shrimp (Marsupenaeus japonicus) was chosen as a representative species of crustacean due to its significance in the high-end market. At the end of the experiment, the individual weights were recorded and the data analyzed statistically. All experiments started with young fry or postlarvae. All species except trout were housed during the experiments in parallel recirculation systems of fresh water. Marsupenaeus japonicus shrimp were maintained in seawater. Oreochromis niloticus and Clarias gariepinus were housed in 200-L tanks filtered by a commercial pond filter. Trout were housed in a smaller system composed of 70-l tanks connected in series to account for the species' higher oxygen demand and preference for stronger current. Water quality (oxygen levels, nitrite, and nitrate) was monitored weekly. Partial water replacements were performed if the desired levels were exceeded. (<3 mg O2/l, detectable nitrite, >25 mg/l nitrate). […] Basal diet composition for Tilapia and Kuruma shrimp contained a calculated arginine content of about 1.35% (of diet) which is lower than the minimum requirements of both Tilapia and Kuruma shrimp: corn 40%, soybean meal 21%, rice polishings 14%, gluten 11%, wheat bran 5%, herring meal 5%, monocalcium phosphate 0.8%, limestone 0.7%, L-lysine HCl 0.7%, fish oil 0.5%, vitamin mineral premix 0.3%, sodium bicarbonate 0.15%, salt 0.15%, pellet binder 0.05%. […]

[3] = test system: Clarias gariepinus; assay: Aquaculture screening experiment, African catfish growth on arginine-limited basal diet; settings: after four months
Excerpt: (§2) Nearly all of the […] species relevant to aquaculture belong to three supra-orders: Ostariophysi ([…], catfish, and allies), Protacanthopterygii (e.g. pike, trouts and salmon), and Acanthopterygii (around 50% of all fish species, including all […], flatfish, tuna, etc.). In order to cover as much of the phylogenetic range as possible, fish species were chosen from each of these supra-orders (Ostariophysi; Clarias gariepinus, Protacanthopterygii; Oncorhychus mykiss, Acanthopterygii; Oreochromis niloticus). Additionally, kuruma shrimp (Marsupenaeus japonicus) was chosen as a representative species of crustacean due to its significance in the high-end market. At the end of the experiment, the individual weights were recorded and the data analyzed statistically. All experiments started with young fry or postlarvae. All species except trout were housed during the experiments in parallel recirculation systems of fresh water. Marsupenaeus japonicus shrimp were maintained in seawater. Oreochromis niloticus and Clarias gariepinus were housed in 200-L tanks filtered by a commercial pond filter. Trout were housed in a smaller system composed of 70-l tanks connected in series to account for the species' higher oxygen demand and preference for stronger current. Water quality (oxygen levels, nitrite, and nitrate) was monitored weekly. Partial water replacements were performed if the desired levels were exceeded. (<3 mg O2/l, detectable nitrite, >25 mg/l nitrate). In order to examine the efficiency of dipeptide products after as feed supplements for aquaculture, β-L-aspartyl-arginine as obtained in Example 1 was used in combination with basal arginine-limited diets. The latter diets were supplemented with the said dipeptide products to a concentration of 1.25 or 2.5% (wt/wt), or with corresponding isonitrogenous concentrations of an aspartic acid-arginine mixture (to determine the effect of free amino acids alone). Basal diets were formulated from individual components in common use in the aquaculture feed industry to ensure realistic conditions. […]

[4] = test system: Oncorhynchus mykiss; assay: Aquaculture screening experiment, trout growth on arginine-limited basal diet; settings: after four months
Excerpt: as §2

[5] = test system: Marsupenaeus japonicus; assay: Aquaculture screening experiment, kuruma shrimp growth on arginine-limited basal diet; settings: after two months
Excerpt: as §1, with “All species except trout were housed during the experiments in parallel recirculation systems of fresh water. Marsupenaeus japonicus shrimp were maintained in seawater. Oreochromis niloticus and Clarias gariepinus were housed in 200-L tanks filtered by a commercial pond filter. Trout were housed in a smaller system composed of 70-l tanks connected in series to account for the species' higher oxygen demand and preference for stronger current.” left out, “weekly.” for “weekly. Partial water replacements were performed if the desired levels were exceeded. (<3 mg O2/l, detectable nitrite, >25 mg/l nitrate).”

N=C(N)NCCC[C@H](NC(=O)C[C@H](N)C(=O)O)C(=O)O [Asp-Arg, β-L-aspartyl-L-arginine]
safety (mortalities, behavior, postmortem inspection, tissue and blood analysis) ([1]; Atlantic salmon, 0.2-0.6% in diet, 10 weeks): safe for fish | weight gain at the highest level of supplementation ([1]; Atlantic salmon, 0.6% supplementation, 10 weeks (FIG. 1)): not seen | whole body protein level ([1]; Atlantic salmon, 10 weeks, compared to the free amino acid groups): higher body protein level | bioavailability of the dipeptide form versus the free form ([1]; in vivo): five-fold better | mean (wt in g) ([2]; 1.25% supplement in basal diet): 1.84 g | mean (wt in g) ([2]; 2.5% supplement in basal diet): 2.03 g | final weight, % of the control ([2]; feed supplemented with 2.5% dipeptide): over 120 % of the control | mean (wt in g) ([3]; 1.25% (wt/wt) supplement in basal diet): 6.63 g | mean (wt in g) ([3]; 2.5% (wt/wt) supplement in basal diet): 8.42 g | average final weight, % of the control ([3]; addition of dipeptides): around 144 % of the control | mean (wt in g) ([4]; 1.25% supplement in basal diet): 13.63 g | mean (wt in g) ([4]; 2.5% supplement in basal diet): 15.33 g | average final weight, % of the control ([4]; feed containing 2.5% dipeptides): around 115 % of the control | average weight versus amino acid feeding and control ([5]; 1.25%): higher than that of the amino acid feeding and that of the control group | mean ([5]; 1.25% supplement in basal diet, average weight): 0.35 g
